Assay results published in PubChem BioAssay AID1963980 (Molecular Pharmacology Branch, DTP, NCI, 2024).

Test system: 475296-252-R-J1-PDC spheroid viability
Experiment: Anticancer human tumor 475296-252-R-J1-PDC patient-derived rectal carcinoma cell line growth inhibition [PI3K]
Settings: spheroids with HUVEC and MSC; for IC50: curve of first compound; for viability, T/C: stronger effect = lower value
Source text: Combinatorial screen of targeted agents with the PI3K inhibitors inavolisib, alpelisib, duvelisib, and copanlisib in multi-cell type tumor spheroids
A high-throughput screen of multi-cell type tumor spheroids was designed to identify active combinations of targeted small molecules and PI3K pathway inhibitors. Complex spheroids include a stromal component modeled by human endothelial cells (HUVEC) and fibroblasts modeled by human mesenchymal stem cells (MSCs). The concentration ranges selected for each drug and investigational agent were based upon clinically achievable concentrations if the clinical Cmax of the agent was known.
Compounds. The drugs and investigational agents: inavolisib (NSC800729), alpelisib (NSC765974), duvelisib (NSC772469), copanlisib (NSC816437), ipatasertib (NSC767898), afuresertib (NSC778305), talazoparib (NSC767125), sapanisertib (NSC764658), selumetinib (NSC741078), tovorafenib (DAY101, NSC766906), vemurafenib (NSC761431), ravoxertinib (NSC781343), sotorasib (NSC818433), MRTX1133 (NSC 836407), abemaciclib (NSC 768073), palbociclib (NSC758247), venetoclax (NSC 766270), SY5609 (NSC837396), enzalutamide (NSC755605), and darolutamide (NSC825331), were obtained from the National Cancer Institute (NCI) Developmental Therapeutics Program Chemical Repository. The FDA-approved anticancer drug set is available from the NCI Developmental Therapeutics Program. […] The stock solutions were prepared in dimethyl sulfoxide (DMSO, Sigma-Aldrich, St. Louis, MO, cat. D2650) at 800-fold the tested concentration and stored at -70 degrees C prior to their use. All drugs and investigational agents were tested over a range starting from a high concentration at or near the clinical Cmax and decreasing in half-log increments. If the clinical Cmax for an agent had not been determined, the highest concentration tested was 10 microM.
Cell Culture. All cells were maintained in an incubator at 37 degrees C and 5% CO2 with 95% humidity. The PDC lines were cultured according to standard operating procedures established by the NCI PDMR (https://pdmr.cancer.gov/sops/default.htm). All PDCs were thawed and cultured in Matrigel-coated flasks prepared with a working solution of 1X Ham's F-12 nutrient mix, without supplementation (Invitrogen, Waltham, MA, cat. 11765054), 100 U/mL penicillin-streptomycin (Invitrogen, cat. 15140122), and 2.5% Matrigel (Corning Inc., Corning, NY, cat. 354248) for the first three passages. The 354836-022-R-J1-PDC, 475296-252-R-J1-PDC, and 997726-040-R-J2-PDC lines were cultured in 6A media, which includes advanced DMEM/F-12 (Thermo Fisher Scientific, cat. 12634028), 10 mM HEPES (Thermo Fisher Scientific, cat. 15630080), 1X GlutaMAX supplement (Thermo Fisher Scientific, cat. 35050061), 0.1 mg/mL primocin (InvivoGen, San Diego, CA, cat. ant-pm-2), 10% defined fetal bovine serum, heat inactivated (HyClone Laboratories Inc., Logan, UT, cat. SH30070.03HI), 50% L-WRN conditioned media (ATCC, cat. CRL-3276), 1.25 mM N-Acetyl-L-cysteine (Sigma-Aldrich, cat. A9165), 10 mM nicotinamide (Sigma-Aldrich, cat. N0636), 1X B-27 supplement (Thermo Fisher Scientific, cat. 17504044), 1X N-2 supplement (Thermo Fisher Scientific, cat. 17502048), and 10 microM Y-27632 dihydrochloride (Tocris Bioscience, Bristol, United Kingdom, cat. 1254). The 624824-186-R-J2-PDC line was cultured in 6C/Colon 1B media, which includes all 6A media components plus 50 ng/mL human EGF recombinant protein (Thermo Fisher Scientific, cat. PHG0311). […]

[1] = second compound 0.00316 µM, first compound 0.0316 µM
[2] = second compound 0.00316 µM, first compound 0.1 µM
[3] = second compound 0.01 µM, first compound 0.0316 µM
[4] = second compound 0.01 µM, first compound 0.1 µM
[5] = second compound 0.0316 µM, first compound 0.0316 µM
[6] = second compound 0.0316 µM, first compound 0.1 µM
[7] = second compound 0.1 µM, first compound 0.0316 µM
[8] = second compound 0.1 µM, first compound 0.1 µM
[9] = second compound 0.316 µM, first compound 0.0316 µM
[10] = second compound 0.316 µM, first compound 0.1 µM
[11] = second compound 1 µM, first compound 0.0316 µM
[12] = second compound 1 µM, first compound 0.1 µM
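Further: spheroids exposed to agents for seven days before readout.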

For CC(C)NCC(C(=O)N1CCN(c2ncnc3c2C(C)CC3O)CC1)c1ccc(Cl)cc1 (centres undefined) + CC(Nc1ccc2c(c1)OCCn1cc(N3C(=O)OCC3C(F)F)nc1-2)C(N)=O, the IC50 (second compound 0.00316 µM) was greater than 10 µM, the IC50 (second compound 0.01 µM) was greater than 10 µM and the IC50 (second compound 0.0316 µM) was greater than 10 µM. It also gave an IC50 (second compound 0.1 µM) greater than 10 µM, an IC50 (second compound 0.316 µM) greater than 10 µM and an IC50 (second compound 1 µM) greater than 10 µM. For the same compound, the viability, T/C [1] was 85.7%, the viability, T/C [2] was 86.5% and the viability, T/C (second compound 0.00316 µM, first compound 0.316 µM) was 95.3%. It also gave a viability, T/C (second compound 0.00316 µM, first compound 1 µM) of 75.7%, a viability, T/C (second compound 0.00316 µM, first compound 3.16 µM) of 67.6% and a viability, T/C (second compound 0.00316 µM, first compound 10 µM) of 59.3%. The viability, T/C [3] was 82.7%, the viability, T/C [4] was 78.5% and the viability, T/C (second compound 0.01 µM, first compound 0.316 µM) was 88.3%. The viability, T/C (second compound 0.01 µM, first compound 1 µM) was 67.6%, the viability, T/C (second compound 0.01 µM, first compound 3.16 µM) was 65.3% and the viability, T/C (second compound 0.01 µM, first compound 10 µM) was 67.5%. It also gave a viability, T/C [5] of 92.7%, a viability, T/C [6] of 94.3% and a viability, T/C (second compound 0.0316 µM, first compound 0.316 µM) of 91.4%. It also gave a viability, T/C (second compound 0.0316 µM, first compound 1 µM) of 95.4%, a viability, T/C (second compound 0.0316 µM, first compound 3.16 µM) of 63.5% and a viability, T/C (second compound 0.0316 µM, first compound 10 µM) of 62.4%. The viability, T/C [7] was 84.2%, the viability, T/C [8] was 86.4% and the viability, T/C (second compound 0.1 µM, first compound 0.316 µM) was 90.5%. For the same compound, the viability, T/C (second compound 0.1 µM, first compound 1 µM) was 92.5%, the viability, T/C (second compound 0.1 µM, first compound 3.16 µM) was 78.4% and the viability, T/C (second compound 0.1 µM, first compound 10 µM) was 57.8%. For the same compound, the viability, T/C [9] was 84.9%, the viability, T/C [10] was 80% and the viability, T/C (second compound 0.316 µM, first compound 0.316 µM) was 84.9%. The viability, T/C (second compound 0.316 µM, first compound 1 µM) was 82.6%, the viability, T/C (second compound 0.316 µM, first compound 3.16 µM) was 87.4% and the viability, T/C (second compound 0.316 µM, first compound 10 µM) was 66.2%. It also gave a viability, T/C [11] of 93.5%, a viability, T/C [12] of 86.2% and a viability, T/C (second compound 1 µM, first compound 0.316 µM) of 83.4%. The viability, T/C (second compound 1 µM, first compound 1 µM) was 77.8%, the viability, T/C (second compound 1 µM, first compound 3.16 µM) was 77% and the viability, T/C (second compound 1 µM, first compound 10 µM) was 67.8%.
In the case of Cn1ncnc1[C@H]1c2n[nH]c(=O)c3cc(F)cc(c23)N[C@@H]1c1ccc(F)cc1 + CC(Nc1ccc2c(c1)OCCn1cc(N3C(=O)OCC3C(F)F)nc1-2)C(N)=O, the IC50 (second compound 0.00316 µM) is reported as greater than 0.1 µM, the IC50 (second compound 0.01 µM) is reported as greater than 0.1 µM and the IC50 (second compound 0.0316 µM) is reported as greater than 0.1 µM. For the same compound, the IC50 (second compound 0.1 µM) was greater than 0.1 µM, the IC50 (second compound 0.316 µM) was greater than 0.1 µM and the IC50 (second compound 1 µM) was greater than 0.1 µM. It also gave a viability, T/C (second compound 0.00316 µM, first compound 0.000316 µM) of 88.1%, a viability, T/C (second compound 0.00316 µM, first compound 0.001 µM) of 84.3% and a viability, T/C (second compound 0.00316 µM, first compound 0.00316 µM) of 94.8%. For the same compound, the viability, T/C (second compound 0.00316 µM, first compound 0.01 µM) was 93.2%, the viability, T/C [1] was 97.2% and the viability, T/C [2] was 90.1%. For the same compound, the viability, T/C (second compound 0.01 µM, first compound 0.000316 µM) was 98.4%, the viability, T/C (second compound 0.01 µM, first compound 0.001 µM) was 82.9% and the viability, T/C (second compound 0.01 µM, first compound 0.00316 µM) was 89.2%. The viability, T/C (second compound 0.01 µM, first compound 0.01 µM) was 95.1%, the viability, T/C [3] was 92.8% and the viability, T/C [4] was 92%. For the same compound, the viability, T/C (second compound 0.0316 µM, first compound 0.000316 µM) was 86.1%, the viability, T/C (second compound 0.0316 µM, first compound 0.001 µM) was 104% and the viability, T/C (second compound 0.0316 µM, first compound 0.00316 µM) was 88.8%. It also gave a viability, T/C (second compound 0.0316 µM, first compound 0.01 µM) of 87.4%, a viability, T/C [5] of 88% and a viability, T/C [6] of 96.6%. It also gave a viability, T/C (second compound 0.1 µM, first compound 0.000316 µM) of 92.4%, a viability, T/C (second compound 0.1 µM, first compound 0.001 µM) of 101% and a viability, T/C (second compound 0.1 µM, first compound 0.00316 µM) of 93.6%. For the same compound, the viability, T/C (second compound 0.1 µM, first compound 0.01 µM) was 92.6%, the viability, T/C [7] was 89.7% and the viability, T/C [8] was 97.9%. It also gave a viability, T/C (second compound 0.316 µM, first compound 0.000316 µM) of 81.8%, a viability, T/C (second compound 0.316 µM, first compound 0.001 µM) of 83.4% and a viability, T/C (second compound 0.316 µM, first compound 0.00316 µM) of 86.1%. The viability, T/C (second compound 0.316 µM, first compound 0.01 µM) was 84.6%, the viability, T/C [9] was 89.8% and the viability, T/C [10] was 81.6%. For the same compound, the viability, T/C (second compound 1 µM, first compound 0.000316 µM) was 84.5%, the viability, T/C (second compound 1 µM, first compound 0.001 µM) was 71.6% and the viability, T/C (second compound 1 µM, first compound 0.00316 µM) was 87%. The viability, T/C (second compound 1 µM, first compound 0.01 µM) was 89.1%, the viability, T/C [11] was 85% and the viability, T/C [12] was 79.6%.
